Measurements as given in patent US9809587B2, “Pesticidally active heterocyclic derivatives with sulphur containing substituents” (Syngenta Participations AG, priority 2014, dated 2017).

Key:
Type in all cases: in vivo
[1] = system: Bemisia tabaci (Cotton White Fly); experiment: Bemisia tabaci (cotton white fly), sprayed cotton leaf discs; details: foliar, 144 h, application rate of 200 ppm, adult white flies on cotton leaf discs, 6 days after incubation
Protocol: Example B1: Bemisia tabaci (Cotton White Fly)
Cotton leaf discs were placed on agar in 24-well microtiter plates and sprayed with aqueous test solutions prepared from 10′000 ppm DMSO stock solutions. After drying the leaf discs were infested with adult white flies. The samples were checked for mortality 6 days after incubation.

[2] = system: Diabrotica balteata (Corn Root Worm); experiment: Diabrotica balteata (corn root worm), sprayed maize sprouts; details: 96 h, application rate of 200 ppm, L2 larvae on maize sprouts, 4 days after infestation
Protocol: Example B2: Diabrotica balteata (Corn Root Worm)
Maize sprouts, placed on an agar layer in 24-well microtiter plates were treated with aqueous test solutions prepared from 10′000 ppm DMSO stock solutions by spraying. After drying, the plates were infested with L2 larvae (6 to 10 per well). The samples were assessed for mortality and growth inhibition in comparison to untreated samples 4 days after infestation.

[3] = system: Euschistus heros (Neotropical Brown Stink Bug); experiment: Euschistus heros (neotropical brown stink bug), sprayed soybean leaf; details: 120 h, application rate of 200 ppm, N-2 nymphs on soybean leaf, 5 days after infestation
Protocol: Example B3: Euschistus heros (Neotropical Brown Stink Bug)
Soybean leaf on agar in 24-well microtiter plates were sprayed with aqueous test solutions prepared from 10′000 ppm DMSO stock solutions. After drying the leaf were infested with N-2 nymphs. The samples were assessed for mortality in comparison to untreated samples 5 days after infestation.

[4] = system: Myzus persicae (Green Peach Aphid); experiment: Myzus persicae (green peach aphid), sprayed sunflower leaf discs; details: foliar, 144 h, application rate of 200 ppm, mixed ages on sunflower leaf discs, 6 days after infestation
Protocol: Example B4: Myzus persicae (Green Peach Aphid)
Sunflower leaf discs were placed on agar in a 24-well microtiter plate and sprayed with aqueous test solutions prepared from 10′000 ppm DMSO stock solutions. After drying, the leaf discs were infested with an aphid population of mixed ages. The samples were assessed for mortality 6 days after infestation.

[5] = system: Myzus persicae (Green Peach Aphid); experiment: Myzus persicae (green peach aphid), roots of pea seedlings in test solution; details: 144 h, test rate of 24 ppm, roots of infested pea seedlings in test solution, 6 days
Protocol: Example B5: Myzus persicae (Green Peach Aphid)
Roots of pea seedlings infested with an aphid population of mixed ages were placed directly in the aqueous test solutions prepared from 10′000 DMSO stock solutions. The samples were assessed for mortality 6 days after placing seedlings in test solutions.

[6] = system: Plutella xylostella (Diamond Back Moth); experiment: Plutella xylostella (diamond back moth), treated artificial diet; details: 120 h, application rate of 200 ppm, L2 larvae on artificial diet, 5 days after infestation, read-out: effect in at least one of the two categories (mortality or growth inhibition)
Summary of the method: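 Artificial diet treated with aqueous dilutions of DMSO stocks (10′000 ppm stock), dried, then infested with 10-15 L2 larvae per well. Mortality and growth inhibition assessed versus untreated controls 5 days after infestation.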

[7] = system: Spodoptera littoralis (Egyqptian Cotton Leaf Worm); experiment: Spodoptera littoralis (Egyptian cotton leaf worm), sprayed cotton leaf discs; details: foliar, 72 h, application rate of 200 ppm, L1 larvae on cotton leaf discs, 3 days after infestation
Summary of the method: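 Cotton leaf discs on agar were sprayed with aqueous dilutions made from 10′000 ppm DMSO stocks, then infested after drying with five L1 larvae. Mortality, anti-feedant effect and growth inhibition were scored against untreated discs 3 days after infestation. Control means at least one of these exceeds the untreated sample.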

[8] = system: Spodoptera littoralis (Egyqptian Cotton Leaf Worm); experiment: Spodoptera littoralis (Egyptian cotton leaf worm), compound in agar taken up by lettuce roots; details: 144 h, test rate of 12.5 ppm, uptake by lettuce roots from agar, 6 days after infestation, read-out: effect in at least one of the three categories (mortality, anti-feedancy, or growth inhibition)
Source text: Example B8: Spodoptera littoralis (Egyqptian Cotton Leaf Worm)
Test compounds were applied by pipette from 10′000 ppm DMSO stock solutions into 24-well plates and mixed with agar. Lettuce seeds were placed on the agar and the multi well plate was closed by another plate which contains also agar. After 7 days the roots have absorbed the compound and the lettuce has grown into the lid plate. The lettuce leafs were now cut off into the lid plate. Spodoptera eggs were pipetted through a plastic stencil on a humid gel blotting paper and the plate closed with it. The samples were assessed for mortality, anti-feedant effect and growth inhibition in comparison to untreated samples 6 days after infestation.
The following compounds gave an effect of at least 80% in at least one of the three categories (mortality, anti-feedancy, or growth inhibition) at a test rate of 12.5 ppm: […]

[9] = system: Aedes aegypti (Yellow Fever Mosquito); experiment: Activity against Aedes aegypti (yellow fever mosquito), dried deposits in tissue culture plates; details: application rate of 200 ppm in ethanol, adult females, after 48 h
Protocol: Example B12: Activity Against Aedes aegypti (Yellow Fever Mosquito)
Test solutions, at an application rate of 200 ppm in ethanol, were applied to 12-well tissue culture plates. Once the deposits were dry, five, two to five days old adult female Aedes aegypti were added to each well, and sustained with a 10% sucrose solution in a cotton wool plug. Assessment of knockdown was made one hour after introduction, and mortality was assessed at 24 and 48 hours after introduction.
The following compounds gave at least 80% control of Aedes aegypti after 48 h: […]

[10] = system: Frankliniella occidentalis (Western Flower Thrips); experiment: Frankliniella occidentalis (western flower thrips), sprayed sunflower leaf discs; details: foliar, 168 h, application rate of 200 ppm, mixed ages on sunflower leaf discs, 7 days after infestation
Protocol: Example B11: Frankliniella occidentalis (Western Flower Thrips)
Sunflower leaf discs were placed on agar in 24-well microtiter plates and sprayed with aqueous test solutions prepared from […] stock solutions. After drying the leaf discs were infested with a Frankliniella population of mixed ages. The samples were assessed for mortality 7 days after infestation.

CCS(=O)(=O)c1cc(-c2cnn(C)c2)cnc1-c1nc2cc(C(F)(F)F)ncc2n1C [Compound P6]
≥ 80%: mortality at 200 ppm [1] | mortality at 200 ppm [2] | mortality at 200 ppm [3] | mortality at 200 ppm [4] | mortality at 24 ppm [5] | percent effect (mortality or growth inhibition) at 200 ppm [6] | percent control (mortality, anti-feedant effect or growth inhibition) at 200 ppm [7] | percent control (mortality, anti-feedancy or growth inhibition) at 12.5 ppm [8]

CCS(=O)(=O)c1cc(-n2cccn2)cnc1-c1nc2cc(C(F)(F)F)ncc2n1C [Compound P84]
≥ 80%: mortality at 200 ppm [2] | mortality at 200 ppm [3] | mortality at 200 ppm [4] | mortality at 24 ppm [5] | percent effect (mortality or growth inhibition) at 200 ppm [6] | percent control (mortality, anti-feedant effect or growth inhibition) at 200 ppm [7] | percent control (mortality, anti-feedancy or growth inhibition) at 12.5 ppm [8]

CCS(=O)(=O)c1cc(-c2nccc(C#N)n2)cnc1-c1nc2cc(C(F)(F)F)ncc2n1C [Compound P101]
≥ 80%: mortality at 200 ppm [2] | mortality at 200 ppm [3] | mortality at 200 ppm [4] | percent effect (mortality or growth inhibition) at 200 ppm [6] | percent control (mortality, anti-feedant effect or growth inhibition) at 200 ppm [7] | pest or weed control at 200 ppm [9]

CCS(=O)(=O)c1cc(-c2ccnc(F)c2)cnc1-c1nc2cc(C(F)(F)F)ncc2n1C [Compound P70]
≥ 80%: mortality at 200 ppm [1] | mortality at 200 ppm [2] | mortality at 200 ppm [3] | mortality at 200 ppm [4] | mortality at 24 ppm [5] | percent effect (mortality or growth inhibition) at 200 ppm [6] | percent control (mortality, anti-feedant effect or growth inhibition) at 200 ppm [7] | percent control (mortality, anti-feedancy or growth inhibition) at 12.5 ppm [8] | mortality at 200 ppm [10]

CCS(=O)(=O)c1cc(-c2ncccc2Cl)cnc1-c1nc2cc(C(F)(F)F)ncc2n1C [Compound P32]
≥ 80%: mortality at 200 ppm [2] | mortality at 200 ppm [3] | mortality at 200 ppm [4] | percent effect (mortality or growth inhibition) at 200 ppm [6] | percent control (mortality, anti-feedant effect or growth inhibition) at 200 ppm [7] | percent control (mortality, anti-feedancy or growth inhibition) at 12.5 ppm [8] | mortality at 200 ppm [10]

CCS(=O)(=O)c1cc(-c2ncc(C)cn2)cnc1-c1nc2cc(C(F)(F)F)ncc2n1C [Compound P22]
≥ 80%: mortality at 200 ppm [1] | mortality at 200 ppm [2] | mortality at 200 ppm [3] | mortality at 200 ppm [4] | mortality at 24 ppm [5] | percent effect (mortality or growth inhibition) at 200 ppm [6] | percent control (mortality, anti-feedant effect or growth inhibition) at 200 ppm [7] | percent control (mortality, anti-feedancy or growth inhibition) at 12.5 ppm [8]

CCS(=O)(=O)c1cc(-c2ccc(Cl)nc2)cnc1-c1nc2cc(C(F)(F)F)ncc2n1C [Compound P96]
≥ 80%: mortality at 200 ppm [1] | mortality at 200 ppm [2] | mortality at 200 ppm [3] | mortality at 200 ppm [4] | percent effect (mortality or growth inhibition) at 200 ppm [6] | percent control (mortality, anti-feedant effect or growth inhibition) at 200 ppm [7] | percent control (mortality, anti-feedancy or growth inhibition) at 12.5 ppm [8] | mortality at 200 ppm [10]

CCS(=O)(=O)c1cc(-c2ccc(C(F)(F)F)nc2)cnc1-c1nc2cc(C(F)(F)F)ncc2n1C [Compound P5]
≥ 80%: mortality at 200 ppm [1] | mortality at 200 ppm [2] | mortality at 200 ppm [3] | mortality at 200 ppm [4] | mortality at 24 ppm [5] | percent effect (mortality or growth inhibition) at 200 ppm [6] | percent control (mortality, anti-feedant effect or growth inhibition) at 200 ppm [7] | percent control (mortality, anti-feedancy or growth inhibition) at 12.5 ppm [8] | mortality at 200 ppm [10]

CCS(=O)(=O)c1cc(-c2cncc(C#N)c2)cnc1-c1nc2cc(C(F)(F)F)ncc2n1C [Compound P67]
≥ 80%: mortality at 200 ppm [1] | mortality at 200 ppm [2] | mortality at 200 ppm [3] | mortality at 200 ppm [4] | mortality at 24 ppm [5] | percent effect (mortality or growth inhibition) at 200 ppm [6]

CCS(=O)(=O)c1cc(-c2nccc(OC)n2)cnc1-c1nc2cc(C(F)(F)F)ncc2n1C [Compound P104]
≥ 80%: mortality at 200 ppm [2] | mortality at 200 ppm [3] | mortality at 200 ppm [4] | percent effect (mortality or growth inhibition) at 200 ppm [6] | percent control (mortality, anti-feedant effect or growth inhibition) at 200 ppm [7] | percent control (mortality, anti-feedancy or growth inhibition) at 12.5 ppm [8] | mortality at 200 ppm [10]

CCS(=O)(=O)c1cc(-c2cccc[n+]2O)cnc1-c1nc2cc(C(F)(F)F)ncc2n1C [Compound P56]
≥ 80%: mortality at 200 ppm [2] | mortality at 200 ppm [3] | mortality at 200 ppm [4] | mortality at 24 ppm [5] | percent effect (mortality or growth inhibition) at 200 ppm [6] | percent control (mortality, anti-feedant effect or growth inhibition) at 200 ppm [7] | percent control (mortality, anti-feedancy or growth inhibition) at 12.5 ppm [8] | mortality at 200 ppm [10]

CCS(=O)(=O)c1cc(-c2ccnnc2)cnc1-c1nc2cc(C(F)(F)F)ncc2n1C [Compound P33]
≥ 80%: mortality at 200 ppm [1] | mortality at 200 ppm [2] | mortality at 200 ppm [3] | mortality at 200 ppm [4] | mortality at 24 ppm [5]

CCS(=O)(=O)c1cc(-c2ncncc2F)cnc1-c1nc2cc(C(F)(F)F)ncc2n1C [Compound P61]
≥ 80%: mortality at 200 ppm [2] | mortality at 200 ppm [3] | mortality at 200 ppm [4] | mortality at 24 ppm [5] | percent effect (mortality or growth inhibition) at 200 ppm [6] | percent control (mortality, anti-feedant effect or growth inhibition) at 200 ppm [7] | percent control (mortality, anti-feedancy or growth inhibition) at 12.5 ppm [8]
